Columns and labels:
U937 cells = assay: Cellular assay in U937 cells to measure activity of RIPK1-inhibitors on cell death (necroptosis); format: cell-based; settings: overnight (18 to 24 hrs), 37° C., MTS readout
[1] = biological target: T1, hRIPK1 (aa 1-375) fusion protein (Homo sapiens, UniProt Q13546); assay: Receptor-Interacting Protein Kinase 1 inhibition, ADP Glo assay (conversion of ATP to ADP due to autophosphorylation); format: biochemical; settings: ATP 50 μM, 30 min preincubation, 240 min incubation, room temperature, DMSO 1%
T1 construct: hRIPK1 (aa 1-375) fusion protein
T1 sequence (Q13546 1-375): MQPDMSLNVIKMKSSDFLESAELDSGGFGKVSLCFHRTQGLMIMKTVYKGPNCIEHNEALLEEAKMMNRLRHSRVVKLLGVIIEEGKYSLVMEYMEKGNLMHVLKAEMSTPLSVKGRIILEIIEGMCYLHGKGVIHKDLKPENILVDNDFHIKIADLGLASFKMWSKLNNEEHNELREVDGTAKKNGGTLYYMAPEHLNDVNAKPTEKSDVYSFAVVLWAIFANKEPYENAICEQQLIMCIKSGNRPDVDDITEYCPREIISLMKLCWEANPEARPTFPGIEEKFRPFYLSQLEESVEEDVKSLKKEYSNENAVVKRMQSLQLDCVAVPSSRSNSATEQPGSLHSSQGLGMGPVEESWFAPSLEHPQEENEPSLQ
How it was run: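 The readout was ADP-Glo luminescence after a 240 min rt autophosphorylation reaction with 50 μM ATP, following 30 min preincubation of 3.6 μg/ml hRIPK1 (aa 1-375) fusion with compound at 33300-1.69 nM final in 1% DMSO. Values came from Levenberg-Marquardt nonlinear fits.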

[2] = Homo sapiens, U-937, TNFα/zVAD.fmk induced cell death (necroptosis)

Structure (SMILES) | IC50 [1] [nM] | IC50 (U937 cells; [2]) [nM] | IC50 (U937 cells; TNFα/zVAD.fmk induced cell death (necroptosis)) [nM]
CCOC(=O)c1ncnc(Cl)c1N[C@H]1C[C@@](C)(C(=O)N2OCC[C@H]2c2cc(F)cc(F)c2)C1 [Compound 9, ethyl cis-6-chloro-5-((3-((S)-3-(3,5-difluorophenyl)isoxazolidine-2-carbonyl)-3-methylcyclobutyl)amino)pyrimidine-4-carboxylate] | 366 | 757 | 
O=C([C@H]1CC[C@H](COc2cc(Cl)ncn2)CC1)N1OCC[C@H]1c1cc(F)cc(F)c1 [Compound 46, trans-(4-(((6-chloropyrimidin-4-yl)oxy)methyl)cyclohexyl)((S)-3-(3,5-difluorophenyl)isoxazolidin-2-yl)methanone] | 41 | 14 | 
O=C([C@H]1CC[C@@H](COc2cc(Cl)ncn2)CC1)N1OCC[C@H]1c1cc(F)cc(F)c1 [Compound 56, cis-(4-(((6-chloropyrimidin-4-yl)oxy)methyl)cyclohexyl)((S)-3-(3,5-difluorophenyl)isoxazolidin-2-yl)methanone] | 47 | 125 | 
N#Cc1cc(F)cc([C@@H]2CCON2C(=O)[C@H]2CC[C@H](COc3ccc(F)c(C#N)c3)CC2)c1 [Compound 44, trans-5-((4-((S)-3-(3-cyano-5-fluorophenyl)isoxazolidine-2-carbonyl)cyclohexyl)methoxy)-2-fluorobenzonitrile] | 27 | 5 | 
N#Cc1cc(OC[C@H]2CC[C@H](C(=O)N3OCC[C@H]3c3cc(F)cc(F)c3)CC2)ncn1 [Compound 45, trans-6-((4-((S)-3-(3,5-difluorophenyl)isoxazolidine-2-carbonyl)cyclohexyl)methoxy)pyrimidine-4-carbonitrile] | 44 | 38 | 
CC1(C)OC(=O)N(c2ccc(F)c(O[C@H]3CC[C@@H](C(=O)N4OCC[C@H]4c4cc(F)cc(C#N)c4)CC3)c2)C1=O [Compound 81, cis-3-((S)-2-(4-(5-(5,5-dimethyl-2,4-dioxooxazolidin-3-yl)-2-fluorophenoxy)cyclohexane-1-carbonyl)isoxazolidin-3-yl)-5-fluorobenzonitrile] | 92 | 855 | 
Cc1ccc(OC[C@H]2CC[C@H](C(=O)N3OCC[C@H]3c3cc(F)cc(C#N)c3)CC2)cc1C(N)=O [Compound 85, trans-5-((4-((S)-3-(3-cyano-5-fluorophenyl)isoxazolidine-2-carbonyl)cyclohexyl)methoxy)-2-methylbenzamide] | 28 | 27 | 

Stronger by IC50 [1], values ahead:

IC50 [1] [nM] | Structure (SMILES) | IC50 (U937 cells; [2]) [nM] | IC50 (U937 cells; TNFα/zVAD.fmk induced cell death (necroptosis)) [nM]
24 | N#Cc1cncc([C@@H]2CCON2C(=O)[C@H]2CC[C@H](COc3ccc(F)c(C(N)=O)c3)CC2)c1 [Compound 74, trans-5-((4-((S)-3-(5-cyanopyridin-3-yl)isoxazolidine-2-carbonyl)cyclohexyl)methoxy)-2-fluorobenzamide] | 82 | 
22 | N#Cc1cc(N[C@H]2C[C@@H](C(=O)N3OCC[C@H]3c3cncc(F)c3)C2)ccc1F [Compound 33, cis-2-fluoro-5-((3-((S)-3-(5-fluoropyridin-3-yl)isoxazolidine-2-carbonyl)cyclobutyl)amino)benzonitrile] |  | 61
22 | Cc1ccc(OC[C@H]2CC[C@H](C(=O)N3OCC[C@H]3c3cc(F)cc(F)c3)CC2)cc1C(N)=O [Compound 86, trans-5-((4-((S)-3-(3,5-difluorophenyl)isoxazolidine-2-carbonyl)cyclohexyl)methoxy)-2-methylbenzamide] | 10 | 
18 | N#Cc1cc(F)cc(OC[C@H]2CC[C@@H](C(=O)N3OCC[C@H]3c3cc(F)cc(F)c3)CC2)c1 [Compound 53, cis-3-((4-((S)-3-(3,5-difluorophenyl)isoxazolidine-2-carbonyl)cyclohexyl)methoxy)-5-fluorobenzonitrile] | 17 | 
18 | N#Cc1cc(F)cc([C@@H]2CCON2C(=O)[C@H]2C[C@@H](n3cnc4ccccc43)C2)c1 [Compound 40, cis-3-((S)-2-(3-(1H-benzo[d]imidazol-1-yl)cyclobutane-1-carbonyl)isoxazolidin-3-yl)-5-fluorobenzonitrile] | 262 | 

— patent publication US20260317312A1, “ISOXAZOLIDINES AS RIPK1 INHIBITORS AND USE THEREOF” (GENZYME CORPORATION, priority 2023, published 2026)
